Reference: US20080269241A1, “BICYCLIC AMINOPROPYL TETRAHYDRO-PYRAZOLO-PYRIDINE MODULATORS OF CATHEPSIN S” (priority 2007, published 2008)

Target: T1, human cathepsin S (CatS) (Homo sapiens, UniProt P25774)
T1 construct: made in house; host or cells: baculovirus system (insect cells)
Assay: Recombinant human cathepsin S (CatS) fluorogenic substrate inhibition assay
Assay type: biochemical
Conditions: recombinant human CatS, 10 μM Z-Valine-Valine-Arginine-AMC, pH 5.0; average of results obtained; read-out: CatS IC50
Experimental: Recombinant human cathepsin S (CatS) was expressed in the baculovirus system and purified in one step with a thiopropyl-sepharose column. […] The assay is run in 150 mM sodium acetate pH 5.0 containing 1.5 mM DTT and 150 mM NaCl. […] Measurements are taken every min for 20 min. The rate is calculated from the slope of the increase in fluorescence and the percent inhibition is calculated from this.

T1 sequence (P25774 115-331): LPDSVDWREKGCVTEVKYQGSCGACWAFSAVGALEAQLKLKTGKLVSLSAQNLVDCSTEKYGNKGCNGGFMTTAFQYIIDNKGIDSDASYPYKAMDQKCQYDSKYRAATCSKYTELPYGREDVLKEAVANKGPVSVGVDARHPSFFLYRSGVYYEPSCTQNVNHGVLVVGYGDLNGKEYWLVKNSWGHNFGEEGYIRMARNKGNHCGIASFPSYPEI

Structure (SMILES)	IC50 [nM]
CN(C)CC(=O)NCc1cc(-c2nn(CC(O)CN3CCC(N4CCCC4)CC3)c3c2CN(S(C)(=O)=O)CC3)ccc1C(F)(F)F (stereo not shown) [Example 243, 2-Dimethylamino-N-(5-{1-[2-hydroxy-3-(4-pyrrolidin-1-yl-piperidin-1-yl)-propyl]-5-methanesulfonyl-4,5,6,7-tetrahydro-1H-pyrazolo[4,3-c]pyridin-3-yl}-2-trifluoromethyl-benzyl)-acetamide]	5300
CS(=O)(=O)N1CCc2c(c(-c3ccc(Cl)c(CNC(=O)c4ccc(F)cc4)c3)nn2CC(O)CN2CCC(N3CCCCC3=O)CC2)C1 (stereo not shown) [Example 72, N-(2-Chloro-5-{1-[2-hydroxy-3-(2-oxo-[1,4′]bipiperidinyl-1′-yl)-propyl]-5-methanesulfonyl-4,5,6,7-tetrahydro-1H-pyrazolo[4,3-c]pyridin-3-yl}-benzyl)-4-fluoro-benzamide]	10
CS(=O)(=O)N1CCc2c(c(-c3ccc(Cl)c(NC(=O)c4ccc(F)cc4)c3)nn2CCCN2CCN(c3cccc(Cl)c3)CC2)C1 [Example 234, N-[2-Chloro-5-(1-{3-[4-(3-chloro-phenyl)-piperazin-1-yl]-propyl}-5-methanesulfonyl-4,5,6,7-tetrahydro-1H-pyrazolo[4,3-c]pyridin-3-yl)-phenyl]-4-fluoro-benzamide]	840
CN(C)CCC(=O)NCc1cc(-c2nn(CCCN3CCC(N4CCCC4=O)CC3)c3c2CN(S(C)(=O)=O)CC3)ccc1C(F)(F)F [Example 181, 3-Dimethylamino-N-[5-(5-methanesulfonyl-1-{3-[4-(2-oxo-pyrrolidin-1-yl)-piperidin-1-yl]-propyl}-4,5,6,7-tetrahydro-1H-pyrazolo[4,3-c]pyridin-3-yl)-2-trifluoromethyl-benzyl]-propionamide]	1520
CC(C)(C)OC(=O)N1CCC(C(=O)NCc2cc(-c3nn(CC(O)CN4CCC(N5CCCC5=O)CC4)c4c3CN(S(C)(=O)=O)CC4)ccc2C(F)(F)F)CC1 (stereo not shown) [Example 127, 4-[5-(1-{2-Hydroxy-3-[4-(2-oxo-pyrrolidin-1-yl)-piperidin-1-yl]-propyl}-5-methanesulfonyl-4,5,6,7-tetrahydro-1H-pyrazolo[4,3-c]pyridin-3-yl)-2-trifluoromethyl-benzylcarbamoyl]-piperidine-1-carboxylic acid tert-butyl ester]	220
CC(C)CC(=O)NCc1cc(-c2nn(CC(O)CN3CCC(N4CCOCC4)CC3)c3c2CN(S(C)(=O)=O)CC3)ccc1C(F)(F)F (stereo not shown) [Example 254, N-(5-{1-[2-Hydroxy-3-(4-morpholin-4-yl-piperidin-1-yl)-propyl]-5-methanesulfonyl-4,5,6,7-tetrahydro-1H-pyrazolo[4,3-c]pyridin-3-yl}-2-trifluoromethyl-benzyl)-3-methyl-butyramide]	120
CC(C)CC(=O)NCc1cc(-c2nn(CC(O)CN3CCC(c4ccccn4)CC3)c3c2CN(S(C)(=O)=O)CC3)ccc1C(F)(F)F (stereo not shown) [Example 257, N-(5-{1-[2-Hydroxy-3-(3′,4′,5′,6′-tetrahydro-2′H-[2,4′]bipyridinyl-1′-yl)-propyl]-5-methanesulfonyl-4,5,6,7-tetrahydro-1H-pyrazolo[4,3-c]pyridin-3-yl}-2-trifluoromethyl-benzyl)-3-methyl-butyramide]	10
CC(C)CC(=O)NCc1cc(-c2nn(CC(O)CN3CCC(N4CCCC4)CC3)c3c2CN(S(C)(=O)=O)CC3)ccc1C(F)(F)F (stereo not shown) [Example 248, N-(5-{1-[2-Hydroxy-3-(4-pyrrolidin-1-yl-piperidin-1-yl)-propyl]-5-methanesulfonyl-4,5,6,7-tetrahydro-1H-pyrazolo[4,3-c]pyridin-3-yl}-2-trifluoromethyl-benzyl)-3-methyl-butyramide]	120
CC(C)CC(=O)NCc1cc(-c2nn(CC(O)CN3CCC(c4nnnn4Cc4ccccc4)CC3)c3c2CN(S(C)(=O)=O)CC3)ccc1C(F)(F)F (stereo not shown) [Example 256, N-[5-(1-{3-[4-(1-Benzyl-1H-tetrazol-5-yl)-piperidin-1-yl]-2-hydroxy-propyl}-5-methanesulfonyl-4,5,6,7-tetrahydro-1H-pyrazolo[4,3-c]pyridin-3-yl)-2-trifluoromethyl-benzyl]-3-methyl-butyramide]	70
CS(=O)(=O)N1CCc2c(c(-c3ccc(Cl)c(CNc4cccc(-c5ccccc5)c4)c3)nn2CCCN2CCC(N3CCCC3=O)CC2)C1 [Example 210, 1-[1-(3-{3-[3-(Biphenyl-3-ylaminomethyl)-4-chloro-phenyl]-5-methanesulfonyl-4,5,6,7-tetrahydro-pyrazolo[4,3-c]pyridin-1-yl}-propyl)-piperidin-4-yl]-pyrrolidin-2-one]	630
CS(=O)(=O)N1CCc2c(c(-c3ccc(Cl)c(CNC(=O)c4ccc(F)cc4)c3)nn2CC(O)CN2CCC(N3CCCC3)CC2)C1 (stereo not shown) [Example 14, N-(2-Chloro-5-{1-[2-hydroxy-3-(4-pyrrolidin-1-yl-piperidin-1-yl)-propyl]-5-methanesulfonyl-4,5,6,7-tetrahydro-1H-pyrazolo[4,3-c]pyridin-3-yl}-benzyl)-4-fluoro-benzamide]	100
Cc1nnsc1C(=O)NCc1cc(-c2nn(CC(O)CN3CCC(N4CCCC4=O)CC3)c3c2CN(S(C)(=O)=O)CC3)ccc1C(F)(F)F (stereo not shown) [Example 51, 4-Methyl-[1,2,3]thiadiazole-5-carboxylic acid 5-(1-{2-hydroxy-3-[4-(2-oxo-pyrrolidin-1-yl)-piperidin-1-yl]-propyl}-5-methanesulfonyl-4,5,6,7-tetrahydro-1H-pyrazolo[4,3-c]pyridin-3-yl)-2-trifluoromethyl-benzylamide]	200
CC(C)NC(=O)NCc1cc(-c2nn(CCCN3CCC(N4CCCC4=O)CC3)c3c2CN(S(C)(=O)=O)CC3)ccc1C(F)(F)F [Example 44, 1-Isopropyl-3-[5-(5-methanesulfonyl-1-{3-[4-(2-oxo-pyrrolidin-1-yl)-piperidin-1-yl]-propyl}-4,5,6,7-tetrahydro-1H-pyrazolo[4,3-c]pyridin-3-yl)-2-trifluoromethyl-benzyl]-urea]	160
CC(=O)NCc1cc(-c2nn(CC(O)CN3CCC(n4c(=O)n(C)c5ccc(N(C)C)nc54)CC3)c3c2CN(S(C)(=O)=O)CC3)ccc1C(F)(F)F (stereo not shown) [Example 143, N-[5-(1-{3-[4-(5-Dimethylamino-1-methyl-2-oxo-1,2-dihydro-imidazo[4,5-b]pyridin-3-yl)-piperidin-1-yl]-2-hydroxy-propyl}-5-methanesulfonyl-4,5,6,7-tetrahydro-1H-pyrazolo[4,3-c]pyridin-3-yl)-2-trifluoromethyl-benzyl]-acetamide]	100
CN(C)c1ccc2c(n1)n(C1CCN(CC(O)Cn3nc(-c4ccc(Cl)c(CNC(=O)c5ccc(F)cc5)c4)c4c3CCN(S(C)(=O)=O)C4)CC1)c(=O)n2C (stereo not shown) [Example 76, N-[2-Chloro-5-(1-{3-[4-(5-dimethylamino-1-methyl-2-oxo-1,2-dihydroimidazo[4,5-b]pyridin-3-yl)-piperidin-1-yl]-2-hydroxy-propyl}-5-methanesulfonyl-4,5,6,7-tetrahydro-1H-pyrazolo[4,3-c]pyridin-3-yl)-benzyl]-4-fluoro-benzamide]	10
CC(C)CC(=O)NCc1cc(-c2nn(CC(O)CN3CCC(c4nnn[nH]4)CC3)c3c2CN(S(C)(=O)=O)CC3)ccc1C(F)(F)F (stereo not shown) [Example 277, N-[5-(1-{2-Hydroxy-3-[4-(1H-tetrazol-5-yl)-piperidin-1-yl]-propyl}-5-methanesulfonyl-4,5,6,7-tetrahydro-1H-pyrazolo[4,3-c]pyridin-3-yl)-2-trifluoromethyl-benzyl]-3-methyl-butyramide]	140
